Experimental data as given in US20160346255A1, “METHODS, AGENTS AND COMPOSITIONS FOR TREATMENT OF INFLAMMATORY CONDITIONS” (Betanien Hospital, priority 2014, published 2016).
Non-standard residues stand in square brackets, D forms with d. Residues, ends and D or L forms follow the SMILES beside them. *: point of attachment. dPhe(4-NHCONH2) = NC(=O)Nc1ccc(C[C@@H](N)C(=O)O)cc1; Dihydroorotyl(S) = O=C1C[C@@H](C(=O)*)NC(=O)N1; dPhe(4-Cl) = N[C@H](Cc1ccc(Cl)cc1)C(=O)O; Phe(4-NH2) = Nc1ccc(C[C@H](N)C(=O)O)cc1; d2Nal = N[C@H](Cc1ccc2ccccc2c1)C(=O)O; Lys(iPr) = CC(C)NCCCC[C@H](N)C(=O)O; d3Pal = N[C@H](Cc1cccnc1)C(=O)O

Experiments:
[1] = system: patients with risk factors for cardiovascular disease; experiment: Cardiovascular disease risk factors in patients taking degarelix; format: in vivo, human; settings: for Blood pressure: baseline 151/90; for Fasting glucose (4.0-6.0): 8.9 in April 2014; for HDL (1.0-2.7 mmol/L): Patient 7, baseline 0.68
Excerpt: In our patient group who were offered degarelix, some patients had risk factors for cardiovascular disease, metabolic syndrome, lipidemia or hypoalphalipoproteinemia (low HDL). None of these patients had recently started medications prior to the GnRH antagonist that could explain the changes in blood pressure, HbA1c, fasting glucose or lipids. See Example 1 for patient information.
Patient 1 with metabolic syndrome fulfilling 3 of 5 metabolic risk factors (large waistline >35 inches, high blood pressure and high fasting glucose). […] High HbA1c, contributes to CVD (normal reference range 4.3-6.1%) At baseline 6.4%, high. By 2 weeks HbA1c had normalized to 6.1%. This continues to be normal, and at 8 months is 5.7%. Their fasting glucose was 6.6 mmol/L in September 2014, by October 2014 this was reduced to 6.3 mmol/L. • 2. High blood pressure, contributes to CVD at baseline 151/90 (measured at several times prior to baseline with repeatedly high blood pressure). Blood pressure by 6 months 120/71, and this continues to be normal. At their last check up at 8 months, their blood pressure was 118/78. • 3. No other abnormalities at baseline for assessment
Patient 4 • High HbA1c, contributes to CVD (normal reference range 4.3-6.1%). At baseline the HbA1c was 6.9%, high. By 1 month the HbA1c had reduced to 6.6, by 2 months 6.4, and by 4 months 6.2, and by 12 months it was normalized to 5.9. Their hospital records from a nearby hospital stated that their fasting glucose was high at 8.5 mmol/L (reference range 4.0-6.0) in December 2013, and by April 2014 this was higher at 8.9. They asked the patient's family doctor to initiate treatment due to the development of diabetes type II. Their fasting glucose had reduced to 6.6 mmol/L by 3 months after starting degarelix, and by 4 months has now normalised to 6.0 mmol/L. No other abnormalities baseline for assessment
Patient 7 • 1. Low HDL, contributes to CVD (normal reference range 1.0-2.7 mmol/L). Mora et al. investigated the link between cholesterol and cardiovascular events in women and found baseline HDL level was consistently and inversely associated with incident coronary and CVD events. A low HDL cholesterol level is thought to accelerate the development of atherosclerosis because of impaired reverse cholesterol transport and possibly because of the absence of other protective effects of HDL, such as decreased oxidation of other lipoproteins. • They had low HDL at baseline 0.68 mmol/L in September 2014. They received their loading dose of degarelix 240 mg s.c. in September 2014. By 1 week, their HDL level had increased to 0.73, and by 2 weeks it continued to increase towards normal at 0.75. By 3 weeks it had normalized to 1.13 mmol/L and at 4 weeks is normal at 1.19 mmol/L. • 2. No other abnormalities at baseline for assessment

[2] = system: Patients with Rheumatoid Arthritis; experiment: Rheumatoid arthritis patients treated with degarelix: laboratory variables; format: in vivo, human; design: LH: unit not given beside the values
Excerpt: [table] […] Examples of Patients with Continued RA Improvement Over Several Weeks Despite Stably Low Levels of LH

## CC(=O)N[C@H](Cc1ccc2ccccc2c1)C(=O)N[C@H](Cc1ccc(Cl)cc1)C(=O)N[C@H](Cc1cccnc1)C(=O)N[C@@H](CO)C(=O)N[C@@H](Cc1ccc(NC(=O)[C@@H]2CC(=O)NC(=O)N2)cc1)C(=O)N[C@H](Cc1ccc(NC(N)=O)cc1)C(=O)N[C@@H](CC(C)C)C(=O)N[C@@H](CCCCNC(C)C)C(=O)N1CCC[C@H]1C(=O)N[C@H](C)C(N)=O [degarelix] (Ac-[d2Nal][dPhe(4-Cl)][d3Pal]S[Phe(4-NH2)](Dihydroorotyl(S))[dPhe(4-NHCONH2)]L[Lys(iPr)]P[dA]-NH2)
[1]; Patient 1, October 2014, 6.6 mmol/L in September 2014
  Fasting glucose: 6.3 mmol/L
[1]; Patient 1, after degarelix, 3 of 5 risk factors before
  Criteria for metabolic syndrome: no longer fulfills the criteria
[1]; Patient 1, at 8 months, baseline 6.4%
  HbA1c (4.3-6.1%): 5.7%
[1]; Patient 1, at 8 months
  Blood pressure: 118/78
[1]; Patient 1, by 2 weeks, baseline 6.4%
  HbA1c (4.3-6.1%): 6.1%
[1]; Patient 1, by 6 months
  Blood pressure: 120/71
[1]; Patient 4, by 1 month, baseline 6.9%
  HbA1c (4.3-6.1%): 6.6%
[1]; Patient 4, by 2 months, baseline 6.9%
  HbA1c (4.3-6.1%): 6.4%
[1]; Patient 4, by 3 months
  Fasting glucose (4.0-6.0): 6.6 mmol/L
[1]; Patient 4, by 4 months, normalised
  Fasting glucose (4.0-6.0): 6.0 mmol/L
[1]; Patient 4, by 4 months, baseline 6.9%
  HbA1c (4.3-6.1%): 6.2%
[1]; Patient 4, by 12 months, normalized, baseline 6.9%
  HbA1c (4.3-6.1%): 5.9%
[1]; at 4 weeks
  HDL (1.0-2.7 mmol/L): 1.19 mmol/L
[1]; by 1 week
  HDL (1.0-2.7 mmol/L): 0.73 mmol/L
[1]; by 2 weeks
  HDL (1.0-2.7 mmol/L): 0.75 mmol/L
[1]; by 3 weeks, normalized
  HDL (1.0-2.7 mmol/L): 1.13 mmol/L
[2]; Patient 1, by 24 wks, baseline 6.4, * normalized
  HbA1c (4.3-6.1), final: 6.4, 6.1*
[2]; Patient 1, by 24 wks, baseline 7
  Rheumatoid factor (<14), final: 7, 9
[2]; Patient 1, by 24 wks, baseline 22
  LH, final: 22, <0.
[2]; Patient 1, by 24 wks, baseline 38
  FSH, final: 38, 1
[2]; Patient 1, by 24 wks, baseline 46, * normalized
  ESR (erythrocyte sedimentation rate), final: 46, 24 *
[2]; Patient 1, by 24 wks, baseline 63
  CRP (<5), final: 63, 16
[2]; Patient 1, by 24 wks, baseline 151/90, * normalized
  Blood Pressure, final: 151/90, 120/71 *
[2]; Patient 1, by 24 wks, baseline NEG
  CCP antibody (<10), final: NEG, NEG
[2]; Patient 2, by 15 wks, baseline 5.3
  HbA1c (4.3-6.1), final: 5.3, 5.3
[2]; Patient 2, by 15 wks, baseline 36
  LH, final: 36, <0.3
[2]; Patient 2, by 15 wks, baseline 44
  CRP (<5), final: 44, 23
[2]; Patient 2, by 15 wks, baseline 51
  Rheumatoid factor (<14), final: 51, 38
[2]; Patient 2, by 15 wks, baseline 51, * normalized
  ESR (erythrocyte sedimentation rate), final: 51, 16*
[2]; Patient 2, by 15 wks, baseline 72
  FSH, final: 72, 0.4
[2]; Patient 2, by 15 wks, baseline 101
  CCP antibody (<10), final: 101, 70
[2]; Patient 2, by 15 wks, baseline 118/82
  Blood Pressure, final: 118/82, 126/80
[2]; Patient 3, 4 wks, baseline 2
  LH: <0.3
[2]; Patient 3, 4 wks, baseline 46
  ESR: 41
[2]; Patient 3, 8 wks, baseline 2
  LH: <0.3
[2]; Patient 3, 8 wks, baseline 46
  ESR: 36
[2]; Patient 3, 12 wks, baseline 2
  LH: <0.3
[2]; Patient 3, 12 wks, baseline 46
  ESR: 20
[2]; Patient 3, by 12 wks, baseline 2
  LH, final: 2, >0.3
[2]; Patient 3, by 12 wks, baseline 5.1
  HbA1c (4.3-6.1), final: 5.1, 5.4
[2]; Patient 3, by 12 wks, baseline 6
  FSH, final: 6, 1
[2]; Patient 3, by 12 wks, baseline 33
  CRP (<5), final: 33, 19
[2]; Patient 3, by 12 wks, baseline 46, * normalized
  ESR (erythrocyte sedimentation rate), final: 46, 20 *
[2]; Patient 3, by 12 wks, baseline 102
  CCP antibody (<10), final: 102, 101
[2]; Patient 3, by 12 wks, baseline 110/68
  Blood Pressure, final: 110/68; 110/66
[2]; Patient 3, by 12 wks, baseline 178
  Rheumatoid factor (<14), final: 178, 163
[2]; Patient 4, 3½ wks, baseline 8
  LH: <0.3
[2]; Patient 4, 3½ wks, baseline 78
  ESR: 68
[2]; Patient 4, 9 wks, baseline 8
  LH: <0.3
[2]; Patient 4, 9 wks, baseline 78
  ESR: 36
[2]; Patient 4, by 9 wks, baseline 6.9
  HbA1c (4.3-6.1), final: 6.9, 6.4
[2]; Patient 4, by 9 wks, baseline 8
  LH, final: 8, <0.3
[2]; Patient 4, by 9 wks, baseline 15, * normalized
  FSH, final: 15, 0.7*
[2]; Patient 4, by 9 wks, baseline 78
  ESR (erythrocyte sedimentation rate), final: 78, 36
[2]; Patient 4, by 9 wks, baseline 130/80
  Blood Pressure, final: 130/80; 120/78
[2]; Patient 4, by 9 wks, baseline 142
  CRP (<5), final: 142, 56
[2]; Patient 4, by 9 wks, baseline >200, above limit
  Rheumatoid factor (<14), final: >200, >200
[2]; Patient 4, by 9 wks, baseline >340, above limit
  CCP antibody (<10), final: >340, >340
[2]; Patient 5, by 7 wks, baseline 5.1
  HbA1c (4.3-6.1), final: 5.1, 5.5
[2]; Patient 5, by 7 wks, baseline 28
  ESR (erythrocyte sedimentation rate), final: 28, 8
[2]; Patient 5, by 7 wks, baseline 44
  LH, final: 44, <0.3
[2]; Patient 5, by 7 wks, baseline 64
  FSH, final: 64, <0.1
[2]; Patient 5, by 7 wks, baseline 134/79
  Blood Pressure, final: 134/79; 124/80
[2]; Patient 5, by 7 wks, baseline 167
  Rheumatoid factor (<14), final: 167, >200
[2]; Patient 5, by 7 wks, baseline 257
  CCP antibody (<10), final: 257, 235
[2]; Patient 5, by 7 wks, baseline <5
  CRP (<5), final: <5, 6
[2]; Patient 6, by 3 ½ wks, baseline 5.5
  HbA1c (4.3-6.1), final: 5.5, 5.4
[2]; Patient 6, by 3 ½ wks, baseline 8
  Rheumatoid factor (<14), final: 8, 8
[2]; Patient 6, by 3 ½ wks, baseline 22, * normalized
  CRP (<5), final: 22, <5*
[2]; Patient 6, by 3 ½ wks, baseline 30
  LH, final: 30, <0.3
[2]; Patient 6, by 3 ½ wks, baseline 37, * normalized
  ESR (erythrocyte sedimentation rate), final: 37, 24*
[2]; Patient 6, by 3 ½ wks, baseline 79
  FSH, final: 79, 0.6
[2]; Patient 6, by 3 ½ wks, baseline 90/60
  Blood Pressure, final: 90/60; 100/64
[2]; Patient 6, by 3 ½ wks, baseline NEG
  CCP antibody (<10), final: NEG, NEG
